Experimental data reported in PubChem BioAssay (NCI).
Values joined by “and” are separate entries in the source; they are usually repeats but may differ in a detail not shown here. Equal values may be shown once.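 Briefly, cells in 96-well plates were exposed to five compound concentrations for 48 h, and endpoints were estimated by linear interpolation. GI50 is the concentration that inhibits growth by half. TGI marks complete inhibition of growth.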

Legend:
Test in all cases: NCI tumour cell line growth inhibition, 48 h
T-47D breast = system: T-47D breast
PC-3 prostate = system: PC-3 prostate
DU-145 prostate = system: DU-145 prostate
HS 578T breast = system: HS 578T breast
SNB-78 CNS = system: SNB-78 CNS
DLD-1 colon = system: DLD-1 colon
KM20L2 colon = system: KM20L2 colon
HOP-18 NSCLC = system: HOP-18 NSCLC

SMILES	GI50 (T-47D breast)	TGI (T-47D breast)	GI50 (PC-3 prostate)	TGI (PC-3 prostate)	GI50 (DU-145 prostate)	TGI (DU-145 prostate)	GI50 (HS 578T breast)	TGI (HS 578T breast)	TGI (SNB-78 CNS)	TGI (DLD-1 colon)	TGI (KM20L2 colon)	TGI (HOP-18 NSCLC)
CCOC(=O)c1c2c(n3ccccc13)C(=O)c1ncccc1C2=O	2.51 µM	47.8 µM	0.361 µM	14.9 µM	0.0466 µM	5.31 µM	–	–	–	–	–	–
COC(=O)[C@@H](C)C[C@H](Cc1ccccc1)NC(=O)c1csc([C@@H](C[C@H](C(C)C)N(C)C(=O)[C@@H](NC(=O)[C@H]2CCCCN2C)C2CC2)OC(C)=O)n1	–	–	0.000211 µM and 0.00165 µM	> 16.5 µM	0.000311 µM	–	0.00112 µM and 0.00165 µM	> 16.5 µM	–	–	–	–
CCOc1ccc2nc(NC(=O)C(=O)C(c3cnc4ccccc4n3)[N+](=O)[O-])sc2c1 (centres undefined)	–	> 100 µM	–	> 100 µM	–	–	–	> 100 µM	–	–	–	–
CC(C)OP(=O)(NC(=S)c1ccccc1)OC(C)C	–	–	–	–	–	–	–	–	> 100 µM	> 100 µM	> 100 µM	–
CC(=O)OCc1cc2ccccc2nc1C(Br)(Br)Br	–	> 100 µM	–	–	–	23.9 µM	–	> 100 µM	–	–	–	–
Cc1ccc(Cl)cc1NC(=O)c1sc2nc3c(cc2c1N)C(=O)CCC3	> 100 µM	> 100 µM	4.34 µM	> 100 µM	4.4 µM	> 100 µM	2.34 µM	> 100 µM	–	–	–	–
O=c1c(-c2ccccc2)coc2cc(OC/C(=N/O)c3ccccc3)ccc12	15.3 µM	96.7 µM	17.4 µM	46 µM	29 µM	94.1 µM	34.4 µM	86 µM	–	–	–	–
O=C1c2ccccc2S(=O)(=O)c2cc(-c3nn[nH]n3)ccc21	–	> 100 µM	–	> 100 µM	–	> 100 µM	–	> 100 µM	–	–	–	–
CCOC(=O)c1[nH]c(COC(C)=O)c2c1CCCCCCCCCC2	–	–	–	–	–	–	–	–	> 100 µM	> 100 µM	> 100 µM	> 100 µM
CCN1CCC(O)(c2ccc(Cl)cc2)C(C(=O)c2ccc(Cl)cc2)C1 (centres undefined)	–	–	–	–	–	–	–	–	> 100 µM	> 100 µM	> 100 µM	95.9 µM
O=C1C(=O)c2cccnc2-c2ncccc21	0.205 µM	0.461 µM	0.208 µM	1.27 µM	0.239 µM	1.28 µM	0.244 µM	1.08 µM	–	–	–	–
COc1cccc(NC(=O)/C(Cc2nc3ccccc3nc2C)=N/NC(=O)C[n+]2ccccc2)c1	–	–	–	–	–	–	–	–	> 100 µM	> 100 µM	> 100 µM	> 100 µM
O=c1c(O)c(-c2cc(O)c(O)c(O)c2)oc2cc(O)cc(O)c12	–	> 100 µM	–	> 100 µM	–	> 100 µM	–	> 100 µM	–	–	–	–
C=C1C(=O)O[C@H]2[C@H]1CC/C(Cn1cc(-c3ccccc3C(F)(F)F)nn1)=C\CC[C@@]1(C)O[C@@H]21	1.7 µM	4.71 µM	4.32 µM	15.3 µM	1.42 µM	2.78 µM	3.57 µM	26.7 µM	–	–	–	–
COc1ccccc1NC(=O)CC(=O)N/N=C/c1ccc(N(CCC#N)S(=O)(=O)c2ccccc2)cc1	–	–	–	–	–	–	–	–	> 100 µM	> 100 µM	> 100 µM	> 100 µM
OCC#Cc1ccccc1C#CCCCCCC#Cc1ccccc1C#CCO	16.9 µM	32.3 µM	18.1 µM	38.8 µM	20.2 µM	41.7 µM	21.7 µM	43.7 µM	–	–	–	–

SMILES	GI50 (T-47D breast)	TGI (T-47D breast)	GI50 (PC-3 prostate)	TGI (PC-3 prostate)	GI50 (DU-145 prostate)	TGI (DU-145 prostate)	GI50 (HS 578T breast)	TGI (HS 578T breast)	TGI (SNB-78 CNS)	TGI (DLD-1 colon)	TGI (KM20L2 colon)	TGI (HOP-18 NSCLC)
O=C1c2ccccc2-c2c1c1ccccc1c(=O)n2CCCn1ccnc1	3.28 µM	> 100 µM	2.04 µM	> 100 µM	1.41 µM	6.94 µM	7.92 µM	94.7 µM	–	–	–	–
CC12CCC(Br)C(C)(C)C1CC=C1C(=O)OCC1O2 (centres undefined)	–	45 µM	–	24.2 µM	–	25.7 µM	–	55 µM	–	–	–	–
COc1ccc2c(c1)C(=O)c1c-2n(CCCI)c(=O)c2cc([N+](=O)[O-])ccc12	0.173 µM and 0.163 µM	1.65 µM and 8.64 µM	0.279 µM and 1.42 µM	30.4 µM and > 100 µM	0.0541 µM and 0.0341 µM	0.172 µM and 0.811 µM	7.67 µM and 3.85 µM	31.2 µM and 35.3 µM	–	–	–	–
C=CC(Cl)(CBr)CCC(Br)C(C)(C)Cl (centres undefined)	–	39.6 µM	–	35 µM	–	42.8 µM	–	> 100 µM	–	–	–	–
CC(C)(c1ccccc1)c1ccc(OC#N)cc1	–	–	–	–	–	–	–	–	> 100 µM	> 62.5 µM	> 100 µM	> 100 µM
NC(N)=NS(=O)(=O)c1ccc(Nc2c3ccccc3nc3c(C(=O)Nc4ccc(S(N)(=O)=O)cc4)cccc23)cc1	–	–	–	–	–	–	–	–	> 100 µM	> 100 µM	> 100 µM	> 100 µM
COC(=O)Nc1nc2ccc(Br)cc2[nH]1	–	–	–	–	–	–	–	–	> 100 µM	> 100 µM	64.1 µM	> 100 µM
N#C/C(=C\c1ccc(Br)cc1)n1nnc2ccc(F)cc21	0.447 µM	6.11 µM	0.953 µM	2.89 µM	–	–	2.71 µM	20.4 µM	–	–	–	–
O=C1C(Cl)=C(NCc2ccco2)C(=O)c2ccccc21	10.2 µM	73.7 µM	33.6 µM	> 100 µM	2.6 µM	6.27 µM	3.2 µM	10.1 µM	–	–	–	–
Cn1cc(-c2ccc(-c3ccc(C4=NC5(CC5)C(=O)N4C[C@@H]4CCN(C(=O)C5CC5)C4)cc3)cc2)cn1	13.6 µM	> 100 µM	22.8 µM	> 100 µM	–	–	19.2 µM	84.1 µM	–	–	–	–
Cc1cn(-c2cc(NC(=O)c3ccc(C)c(Nc4nccc(-c5cccnc5)n4)c3)cc(C(F)(F)F)c2)cn1	> 10 µM and 6.71 µM	> 10 µM and 32.3 µM	3.19 µM and 3.23 µM	> 10 µM	3.25 µM and 2.34 µM	> 10 µM and 4.47 µM	5.73 µM and 2.52 µM	> 10 µM and 6.8 µM	–	–	–	–
O=C(NC12CC3CC(CC(C3)C1)C2)C(=O)c1c[nH]c2ccccc12	–	–	–	–	–	–	–	–	40.3 µM	–	19.7 µM	–
CSc1nc(SC)c2c(CO)c(Br)n(Cc3ccccc3)c2n1	–	74.2 µM	–	> 100 µM	–	77.8 µM	–	58.9 µM	–	–	–	–
CCN(CC)C(=O)C(C)n1cc(C)c(=O)[nH]c1=O (centres undefined)	–	–	–	–	–	–	–	–	> 100 µM	–	> 100 µM	–
N#CC1CCCCCCCCCCC(=O)N(CCCl)C1=O (centres undefined)	–	–	–	–	–	–	–	–	> 100 µM	> 100 µM	> 100 µM	–
